# Legend:
# myoblasts (C2C12) = assay: in vitro differentiation induction of myoblasts (C2C12) into skeletal muscle cells in medium containing Colon26 culture supernatant (myotube formation); assay type: cell-based, Mouse; conditions: Colon26 cells treated at 25 µM for 24 hours; 50% supernatant in horse serum-supplemented DMEM; C2C12 observed on day 9, phase-contrast microscope
# Procedure: Mouse myoblasts (C2C12, RIKEN cell bank) and mouse colon cancer cells (Colon26, RIKEN cell bank) were used. The culture medium used was DMEM medium (Sigma-Aldrich Japan) or RPMI medium (Sigma-Aldrich Japan) supplemented with 10% fetal bovine serum (Gibco), 100 units/mL penicillin G (Sigma-Aldrich Japan) and 100 µg/mL streptomycin (Sigma-Aldrich Japan).
# (§1) Colon26 cells were seeded at a concentration of 5 × 10^4 cells/cm^2 in a culture dish with a diameter of 10 mm, and cultured at 37°C, 5% CO2 to 80% to 90% confluency. The medium was then changed to a medium supplemented with 16:0 lysophosphatidylcholine (hereinafter referred to as LPC), 18:0 LPC, 16:0 phosphatidylcholine (hereinafter referred to as PC), or 18:0 PC (all manufactured by Avanti Polar Lipids) at a final concentration of 25 µM, or a medium not containing LPC or PC. The cells were cultured for another 24 hours. After the cells were washed with PBS, the medium was changed to serum-free RPMI medium, and the cells were cultured for another 48 hours. The medium was collected and centrifuged at 4°C and 3000 rpm for 20 minutes to precipitate the cellular components. The supernatant was sterile-filtered using a 0.22 µm sterile filter (Merck Millipore) and stored at -80°C until use.
# C2C12 cells were cultured to 80% to 90% confluency in a 6-well culture plate. The medium was changed to DMEM medium supplemented with horse serum (Gibco, final concentration: 2%) or horse serum-supplemented DMEM medium containing 50% supernatant of one of the five types prepared in the above (2), and the cells were cultured for 9 days to induce differentiation into skeletal muscle cells. On day 9, the morphology of the cells was observed under a phase-contrast microscope.
# Mesenchymal OP9 cells = assay: in vitro differentiation induction of mesenchymal cells (OP9) into adipocytes in medium containing Colon26 culture supernatant (Oil Red O staining); assay type: cell-based; conditions: Colon26 cells treated at 25 µM; 10% supernatant in adipocyte differentiation medium; OP9 observed on day 7
# Procedure: as §1
# Mesenchymal OP9 cells (RIKEN cell bank) were used. The culture medium used was MEM medium (Sigma-Aldrich Japan) supplemented with 20% fetal bovine serum (Gibco), 100 units/mL penicillin G (Sigma-Aldrich Japan), 100 µg/mL streptomycin (Sigma-Aldrich Japan), and 2 mM L-glutamine.
# OP9 cells were seeded at a concentration of 7 × 10^3 cells/cm^2 in a 96-well culture plate and cultured to confluency. […]
# IL-6 = IL-6 levels in culture supernatant of colon cancer cells (Colon26) treated with PC or PS (ELISA); assay type: cell-based, mouse; conditions: 16:0 PC or 18:0 PC 25 µM, PS 100 µg/ml, 24 hours; then 48 hours in serum-free RPMI
# Procedure: Colon26 cells were seeded at a concentration of 5 × 10^4 cells/cm^2 in the medium used in Example 1 in a culture dish with a diameter of 10 mm, and cultured at 37°C, 5% CO2 to 80% to 90% confluency. To the culture dish, 16:0 PC or 18:0 PC was added at a final concentration of 25 µM, and PS (Larodan) was added at a final concentration of 100 µg/ml. The cells were cultured for 24 hours. After the cells were washed with PBS, the medium was changed to serum-free RPMI medium (Wako), and the cells were cultured for another 48 hours. The medium was collected and centrifuged at 4°C and 3000 rpm for 20 minutes to precipitate the cellular components. The supernatant was filtered through a 0.22 µm sterile filter to remove precipitates from the supernatant. The […] IL-6 level in the supernatant was measured using LEGEND MAX Mouse IL-6 ELISA Kit (BioLegend).
# [1] = system: tumor-bearing mice (Colon26); assay: weight of epididymal fat tissue in Colon26 tumor-bearing mice, intravenous PC; assay type: in vivo; conditions: 3 mg/kg via the tail vein every 3 or 4 days; day 36 post-transplantation
# Procedure: (§2) Mice were transplanted with Colon26 cells in the same manner as in Example 3, and one week later, divided into three groups: a non-cancer cell transplantation group (control), a cancer cell transplantation group with administration of a solvent (PBS, n = 20), and a cancer cell transplantation group with administration of PC (PC, n = 20). PC and a solvent (PBS) were administered by the same dosing schedule as that in Example 3. During the dosing period, the general conditions of the mice were observed every day. The survival rate was calculated by counting the number of dead individuals. The surviving mice were euthanized on day 36 post-transplantation of Colon26 cells, and the epididymal fat tissue was harvested to measure the weight (groups of n = 8 each). Total RNA was recovered from less than 100 mg of the epididymal fat tissue, and cDNA was synthesized and subjected to qPCR in the same manner as in Example 3 (groups of n = 2 each). The reagents and devices were the same as those used in Example 3. The primer set shown below was used to detect the Leptin gene, which is known to have the function of maintaining fat tissue. The primer set for amplification of the mouse GAPDH gene was the same as that used in Example 3.
# Leptin gene = assay: quantitative PCR of Leptin gene in epididymal fat tissue of Colon26 tumor-bearing mice, intravenous PC; assay type: in vivo, mouse; conditions: 3 mg/kg via the tail vein every 3 or 4 days, day 36 post-transplantation
# Procedure: as §2
# Primer set for amplification of mouse Leptin gene: • sense 5'-[…]-3' (SEQ ID NO: 7), and • anti-sense 5'-GCCATCCAGGCTCTCTGG-3' (SEQ ID NO: 8).
# [2] = system: tumor-bearing mice (Colon26); assay: muscle weight in Colon26 tumor-bearing mice, intravenous PC; assay type: in vivo; conditions: 3 mg/kg via the tail vein every 3 or 4 days from one week after transplantation; day 36 post-transplantation
# Procedure: (§3) Male BalB/c mice (SLC) at 8 to 9 weeks old were used. Colon26 cells were cultured to 80% to 90% confluency in the same manner as in Example 1 and suspended in PBS to a concentration of 1 × 10^6 cells/mL. Then, 100 µL of the cell suspension was subcutaneously transplanted into the right upper flank of the mice. Every 3 or 4 days, the body weight of the mice was measured, and the general conditions of the mice were observed. The tumor size [1/2(a × b^2) mm^3] was calculated by measuring the maximum diameter (a) and the minimum diameter (b) of the tumor.
# (§4) Hydrogenated PC (HSPC; Avanti Polar Lipids) was dissolved in ethanol to a concentration of 50 mM and stored at -20°C until use.
# (§5) We set up three groups of mice: a non-cancer cell transplantation group (control), a cancer cell transplantation group with administration of a solvent (PBS), and a cancer cell transplantation group with administration of PC (PC). […]
# (§6) The mice were euthanized on day 36 post-transplantation of Colon26 cells, and the gastrocnemius and tibialis muscles were harvested to measure the weight. Twenty milligrams of each muscle tissue was homogenized using High Power Homogenizer ASG50 (AS ONE Corporation), and the total RNA was recovered using RNeasy Fibrous Mini Kit (Qiagen). cDNA was synthesized from the total RNA using PrimeScript RT reagent Kit (Takara) and subjected to quantitative PCR (qPCR). […]
# [3] = system: tumor-bearing mice (Colon26); assay: survival rate of Colon26 tumor-bearing mice, intravenous PC; assay type: in vivo; conditions: 3 mg/kg via the tail vein every 3 or 4 days; compared with solvent (PBS) group
# Procedure: as §2
# Atrogin-1 gene = assay: quantitative PCR of Atrogin-1 gene in muscle of Colon26 tumor-bearing mice, intravenous PC; assay type: in vivo, mouse; conditions: 3 mg/kg via the tail vein every 3 or 4 days, day 36 post-transplantation
# Procedure: as §3, §4, §5, §6
# MuRF-1 gene = assay: quantitative PCR of MuRF-1 gene in muscle of Colon26 tumor-bearing mice, intravenous PC; assay type: in vivo, mouse; conditions: 3 mg/kg via the tail vein every 3 or 4 days, day 36 post-transplantation
# Procedure: as §3, §4, §5, §6
compound,measurement,setting,value
"CCCCCCCCCCCCCCCC(=O)OCC(O)COP(=O)([O-])OCC[N+](C)(C)C (stereo not drawn) [16:0 LPC, 16:0 lysophosphatidylcholine]",myotube formation,myoblasts (C2C12),myotube formation was observed
same,adipocyte differentiation (Oil Red O),Mesenchymal OP9 cells,inhibition of adipocyte differentiation was prevented
"CCCCCCCCCCCCCCCC(=O)OCC(COP(=O)([O-])OCC[N+](C)(C)C)OC(=O)CCCCCCCCCCCCCCC (stereo not drawn) [16:0 PC, 16:0 phosphatidylcholine]",myotube formation,myoblasts (C2C12),myotube formation was observed
same,IL-6 levels in the culture supernatant of Colon26 cells,IL-6,direct inhibitory effect on the expression of IL-6 in cancer cells
CCCCCCCCCCCCCCCCCC(=O)OCC(O)COP(=O)([O-])OCC[N+](C)(C)C (stereo not drawn) [18:0 LPC],myotube formation,myoblasts (C2C12),myotube formation was observed
CCCCCCCCCCCCCCCCCC(=O)OCC(COP(=O)([O-])OCC[N+](C)(C)C)OC(=O)CCCCCCCCCCCCCCCCC (stereo not drawn) [18:0 PC],myotube formation,myoblasts (C2C12),myotube formation was observed
same,IL-6 levels in the culture supernatant of Colon26 cells,IL-6,direct inhibitory effect on the expression of IL-6 in cancer cells
Hydrogenated PC,weight of the epididymal fat tissue,[1],weight loss in the fat tissue was not observed
same,expression of the Leptin gene,Leptin gene,comparable to that in normal mice
same,weight of the gastrocnemius muscle (Gastrocnemius),[2],muscle weight loss was not observed
same,weight of the tibialis muscle (Tibialis),[2],muscle weight loss was not observed
same,survival rate,[3],improved
same,expression of the Atrogin-1 gene,Atrogin-1 gene,comparable to that in normal mice
same,expression of the MuRF-1 gene,MuRF-1 gene,comparable to that in normal mice
phosphatidylserine [PS],IL-6 levels in the culture supernatant of Colon26 cells,IL-6,direct inhibitory effect on the expression of IL-6 in cancer cells

# — EP4740950A1, “PROPHYLACTIC OR AMELIORATING AGENT FOR CACHEXIA” (The University of Osaka, priority 2023, dated 2025)
